Here are results for 46 molecules from patent US7879760B2, “Isopentyl carboxanilides for combating undesired micro-organisms” (Bayer CropScience AG, priority 2003, dated 2011).

A word on the chromatographic logP: it is a lipophilicity value derived from retention on a column.

Structures are written as SMILES. Where a name gives a salt, the structure may show the parent alone.

The subject of one data set is Venturia inaequalis. The data set can be described thus: Venturia test (apple)/protective. It counts as in vivo. As to conditions: apple plants, protective spray, application rate 100 g/ha, read-out: Efficacy in %. The protocol:
[table] To produce a suitable preparation of active compound, 1 part by weight of active compound is mixed with the stated amounts of solvents and emulsifier, and the concentrate is diluted with water to the desired concentration. To test for protective activity, young plants are sprayed with the preparation of active compound at the stated application rates. After the spray coating has dried on, the plants are inoculated with an aqueous conidia suspension of the apple scab pathogen Venturia inaequalis and then remain in an incubation cabin at about 20° C. and 100% relative atmospheric humidity for 1 day. The plants are then placed in a greenhouse at about 21° C. and a relative atmospheric humidity of about 90%.
With `Cc1nn(C)c(F)c1C(=O)Nc1ccccc1CCC(C)C` [drawing 101], the pest or weed control at 100 g/ha turned out to be 96%. On to `Cc1nn(C)c(F)c1C(=O)Nc1ccccc1CCC(C)(C)C` [drawing 102], for which the pest or weed control at 100 g/ha amounted to 100%. Still for that read-out and setting: the same measure for `Cc1ccsc1C(=O)Nc1ccccc1CCC(C)(C)C` [drawing 103]: 99%; for `Cc1ccccc1C(=O)Nc1ccccc1CCC(C)(C)C` [drawing 104]: 97%; for `CCC(C)(C)CCc1ccccc1NC(=O)c1c(C)nn(C)c1F` [drawing 105]: 100%. For the molecule `CCC(C)(C)CCc1ccccc1NC(=O)c1cn(C)nc1C(F)F` [drawing 106], the pest or weed control at 100 g/ha was 100%. Still for that read-out and setting: the same measure for `Cn1cc(C(=O)Nc2ccccc2CCC(C)(C)C)c(C(F)F)n1` [drawing 107]: 100%; for `Cn1nc(C(F)(F)F)c(C(=O)Nc2ccccc2CCC(C)(C)C)c1F` [drawing 108]: 100%; for `Cn1cc(C(=O)Nc2ccc(F)cc2CCC(C)(C)C)c(C(F)F)n1` [drawing 109]: 100%.

For another data set, the system named is Sphaerotheca fuliginea. The data set can be described thus: Sphaerotheca test (cucumber)/protective. The class given is in vivo. As to conditions: cucumber plants, protective spray; application rate 750 g/ha; evaluation 7 days after inoculation. How it is done: (§1) To produce a suitable preparation of active compound, 1 part by weight of active compound is mixed with the stated amounts of solvent and emulsifier, and the concentrate is diluted with water to the desired concentration.
To test for protective activity, young cucumber plants are sprayed with the preparation of active compound at the stated application rates. One day after the treatment, the plants are inoculated with a spore suspension of Sphaerotheca fuliginea. The plants are then placed in a greenhouse at 70% relative atmospheric humidity and a temperature of 23° C.
Evaluation is carried out 7 days after the inoculation. 0% means an efficacy which corresponds to that of the control, whereas an efficacy of 100% means that no infection is observed.
In turn, `Cc1nn(C)c(F)c1C(=O)Nc1ccccc1CCC(C)C` [drawing 128] came in with an Efficacy in % of 100%. Molecule `Cc1ccsc1C(=O)Nc1ccccc1CCC(C)(C)C` [drawing 129] yielded an Efficacy in % of 100%. Same read-out and setting: under `CC(C)CCc1ccccc1NC(=O)c1ccccc1C(F)(F)F` [drawing 130] stands 100%; under `Cc1ccccc1C(=O)Nc1ccccc1CCC(C)(C)C` [drawing 131], 100%.

The next data set deals with Puccinia recondita. Description: Puccinia test (wheat)/curative. It counts as in vivo. The following applies: 192 h, wheat plants, curative spray 48 hours after inoculation, application rate 500 g/ha, evaluation 8 days after inoculation, read-out: Efficacy in %. The protocol: as §1
To test for curative activity, young plants are sprayed with a conidia suspension of Puccinia recondita. The plants remain in an incubation cabin at 20° C. and 100% relative atmospheric humidity for 48 hours. The plants are then sprayed with the preparation of active compound at the stated application rates.
The plants are then placed in a greenhouse at a temperature of about 20° C. and a relative atmospheric humidity of 80% to promote the development of rust pustules.
Evaluation is carried out 8 days after the inoculation. 0% means an efficacy which corresponds to that of the control, whereas an efficacy of 100% means that no infection is observed.
On to `Cc1ccccc1C(=O)Nc1ccccc1CCC(C)C`, for which the pest or weed control at 500 g/ha was found to be 100%.

Consider `Cc1nn(C)c(F)c1C(=O)Nc1ccccc1CCC(C)C` [drawing 119], for which the pest or weed control at 500 g/ha was found to be 100%. Same read-out and setting: under `Cc1nn(C)c(F)c1C(=O)Nc1ccccc1CCC(C)(C)C` [drawing 120] stands 100%; under `Cc1ccsc1C(=O)Nc1ccccc1CCC(C)(C)C` [drawing 121], 100%.

Take `CC(C)CCc1ccccc1NC(=O)c1ccccc1C(F)(F)F` [drawing 122]: the pest or weed control at 500 g/ha came out at 100%. Same read-out and setting: the same measure for `CCC(C)(C)CCc1ccccc1NC(=O)c1c(C)nn(C)c1F` [drawing 124]: 100%; for `CCC(C)(C)CCc1ccccc1NC(=O)c1cn(C)nc1C(F)F` [drawing 125]: 100%. On the same count and under the same terms, under `Cn1cc(C(=O)Nc2ccccc2CCC(C)(C)C)c(C(F)F)n1` [drawing 126] stands 100%; under `Cn1cc(C(=O)Nc2ccc(F)cc2CCC(C)(C)C)c(C(F)F)n1` [drawing 127], 100%.

A further data set has as its system Botrytis cinerea. The data set can be described thus: Botrytis test (bean)/protective. It counts as in vivo. As to conditions: 48 h, bean plants, protective spray, application rate 500 g/ha, evaluation two days after inoculation, read-out: Efficacy in %. How it is done: To produce a suitable preparation of active compound, 1 part by weight of active compound is mixed with the stated amounts of solvents and emulsifier, and the concentrate is diluted with water to the desired concentration.
To test for protective activity, young plants are sprayed with the preparation of active compound at the stated application rates. After the spray coating has dried on, 2 small pieces of agar colonized by Botrytis cinerea are placed onto each leaf. The inoculated plants are placed in a dark chamber at about 20° C. and 100% relative atmospheric humidity.
Two days after the inoculation, the size of the infected areas on the leaves is evaluated. 0% means an efficacy which corresponds to that of the control, whereas an efficacy of 100% means that no infection is observed.
As to `Cc1nn(C)c(F)c1C(=O)Nc1ccccc1CCC(C)C` [drawing 110], the pest or weed control at 500 g/ha came out at 84%. On the same count and under the same terms, under `Cc1nn(C)c(F)c1C(=O)Nc1ccccc1CCC(C)(C)C` [drawing 111] stands 100%; under `Cc1ccsc1C(=O)Nc1ccccc1CCC(C)(C)C` [drawing 112], 100%. Still for that read-out and setting: the same measure for `Cc1ccccc1C(=O)Nc1ccccc1CCC(C)(C)C` [drawing 113]: 87%; for `CCC(C)(C)CCc1ccccc1NC(=O)c1c(C)nn(C)c1F` [drawing 114]: 100%.

With `CCC(C)(C)CCc1ccccc1NC(=O)c1cn(C)nc1C(F)F` [drawing 115], the pest or weed control at 500 g/ha is 100%. Still for that read-out and setting: the same measure for `Cn1cc(C(=O)Nc2ccccc2CCC(C)(C)C)c(C(F)F)n1` [drawing 116]: 100%; for `Cn1nc(C(F)(F)F)c(C(=O)Nc2ccccc2CCC(C)(C)C)c1F` [drawing 117]: 100%; for `Cn1cc(C(=O)Nc2ccc(F)cc2CCC(C)(C)C)c(C(F)F)n1` [drawing 118]: 100%.

In a further data set the test system is Podosphaera leucotricha. Description: Podosphaera test (apple)/protective. The class given is in vivo. As to conditions: 240 h, apple plants, protective spray, application rate 100 g/ha, evaluation 10 days after inoculation, read-out: Efficacy in %. How it is done:
To produce a suitable preparation of active compound, 1 part by weight of compound is mixed with the stated amounts of solvents and emulsifier, and the concentrate is diluted with water to the desired concentration.
To test for protective activity, young plants are sprayed with the preparation of active compound at the stated application rates. After the spray coating has dried on, the plants are inoculated with an aqueous spore suspension of the apple mildew pathogen Podosphaera leucotricha. The plants are then placed in a greenhouse at about 23° C. and a relative atmospheric humidity of about 70%.
Evaluation is carried out 10 days after the inoculation. 0% means an efficacy which corresponds to that of the control, whereas an efficacy of 100% means that no infection is observed.
With `Cc1nn(C)c(F)c1C(=O)Nc1ccccc1CCC(C)C` [drawing 93], the pest or weed control at 100 g/ha was determined as 100%. `Cc1nn(C)c(F)c1C(=O)Nc1ccccc1CCC(C)(C)C` [drawing 94]: the pest or weed control at 100 g/ha worked out at 100%. Turning to `Cc1ccsc1C(=O)Nc1ccccc1CCC(C)(C)C` [drawing 95], the pest or weed control at 100 g/ha worked out at 99%.

Turning to `Cc1ccccc1C(=O)Nc1ccccc1CCC(C)(C)C` [drawing 96], the pest or weed control at 100 g/ha was 97%. The same measure, in the same setting: the same measure for `CCC(C)(C)CCc1ccccc1NC(=O)c1c(C)nn(C)c1F` [drawing 97]: 99%. Still for that read-out and setting: the same measure for `CCC(C)(C)CCc1ccccc1NC(=O)c1cn(C)nc1C(F)F` [drawing 98]: 100%; for `Cn1cc(C(=O)Nc2ccccc2CCC(C)(C)C)c(C(F)F)n1` [drawing 99]: 100%.

For `Cn1nc(C(F)(F)F)c(C(=O)Nc2ccccc2CCC(C)(C)C)c1F` [drawing 100], the pest or weed control at 100 g/ha was determined as 100%.

Test system in another data set: not listed separately
The data set can be described thus: logP determination by HPLC on reversed phase column (C 18), EEC-Directive 79/831 Annex V.A8. It counts as physicochemical. As to conditions: reversed phase HPLC column (C 18), pH 2.3, 0.1% aqueous phosphoric acid/acetonitrile gradient, 43° C. How it is done: The determination of the logP values given in preparation examples and tables above is carried out according to EEC-Directive 79/831 Annex V.A8 by HPLC (High Performance Liquid Chromatography) on a reversed phase column (C 18). Temperature: 43° C.
Determination is carried out in the acidic range at pH 2.3 using the mobile phases 0.1% aqueous phosphoric acid and acetonitrile; linear gradient from 10% acetonitrile to 90% acetonitrile.
Calibration is carried out using unbranched alkan-2-ones (of 3 to 16 carbon atoms) whose logP values are known (determination of the logP values by retention times using linear interpolation between two successive alkanones).
Turning to `Cc1nn(C)c(F)c1C(=O)Nc1ccccc1CCC(C)C` [Example 1, 5-fluoro-1,3-dimethyl-N-[2-(3-methylbutyl)phenyl]-1H-pyrazole-4-carboxamide], the chromatographic logP came to 3.12. In turn, `CC(=O)Nc1ccccc1CCC(C)(C)C` [Example (III-2), N-[2-(3,3-dimethylbutyl)phenyl]acetamide] returned a chromatographic logP of 2.69.

Take `CC(C)(C)CCc1ccccc1N` [Example (III-3), 2-(3,3-dimethylbutyl)phenylamine hydrochloride]: the chromatographic logP was found to be 2.2. On to `Cc1nn(C)c(F)c1C(=O)Nc1ccccc1C(=O)CC(C)C` [Example (V-1)], for which the chromatographic logP stood at 3.42. `CC(C)(C)C#Cc1ccccc1NC(=O)c1ccccc1C(F)(F)F` [Example (VII-1), N-[2-(3,3-dimethylbut-1-ynyl)phenyl]-2-trifluoromethylbenzamide] returned a chromatographic logP of 4.55. The same measure, in the same setting: under `CC(C)CC(=O)c1ccccc1N` [Example (X-1), 1-(2-aminophenyl)-3-methylbutan-1-one] stands 2.89; under `CC(=O)Nc1ccccc1C#CC(C)(C)C` [Example (XIII-1), N-[2-(3,3-dimethylbut-1-ynyl)-phenyl]acetamide], 3.03.
